According to ChEMBL document CHEMBL1201861, “Genomics of Drug Sensitity in Cancer screening data, Wellcome Trust Sanger Institute”:

What was measured:
Assay in all cases: cells
LS-411N = type: functional, cell-based, Homo sapiens; details: Homo sapiens, LS-411N
SHP77 = type: functional, cell-based, Homo sapiens, SHP-77; details: Homo sapiens, SHP77;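 also: growth inhibition of human SHP-77 cells measured by a cell viability assay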
Description: SANGER: Inhibition of human SHP-77 cell growth in a cell viability assay.

COLO-320-HSR = type: functional, cell-based, Homo sapiens; details: Homo sapiens, COLO-320-HSR;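 also: growth inhibition of COLO-320-HSR cells, determined with a cell viability assay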
Description: SANGER: Inhibition of human COLO-320-HSR cell growth in a cell viability assay.

NCI-H1581 = type: functional, cell-based, Homo sapiens; details: Homo sapiens, NCI-H1581;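 also: cell growth inhibition read out by a viability assay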
Description: SANGER: Inhibition of human NCI-H1581 cell growth in a cell viability assay.

KLE = type: functional, cell-based; details: Homo sapiens;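 also: growth inhibition of human KLE cells, read out with a cell viability assay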
Description: SANGER: Inhibition of human KLE cell growth in a cell viability assay.

OAW-42 = type: functional, cell-based; details: Homo sapiens;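 also: growth inhibition of OAW-42 cells, read out with a cell viability assay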
Description: SANGER: Inhibition of human OAW-42 cell growth in a cell viability assay.

NCI-H209 = type: functional, cell-based, Homo sapiens; details: Homo sapiens, NCI-H209;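 also: growth inhibition of human NCI-H209 cells, measured by a cell viability assay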
Description: SANGER: Inhibition of human NCI-H209 cell growth in a cell viability assay.

LB1047-RCC = type: functional, cell-based, Homo sapiens; details: Homo sapiens, LB1047-RCC;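 also: inhibition of cell growth, determined with a cell viability assay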
Description: SANGER: Inhibition of human LB1047-RCC cell growth in a cell viability assay.

CTB-1 = type: functional, cell-based, Homo sapiens; details: Homo sapiens, CTB-1
Description: SANGER: Inhibition of human CTB-1 cell growth in a cell viability assay.

HH = type: functional, cell-based, Homo sapiens; details: Homo sapiens, HH
Description: SANGER: Inhibition of human HH cell growth in a cell viability assay.

no-10 = type: functional, cell-based, Homo sapiens; details: Homo sapiens;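 also: growth inhibition of no-10 cells, read out with a cell viability assay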
Description: SANGER: Inhibition of human no-10 cell growth in a cell viability assay.

Becker = type: functional, cell-based, Homo sapiens; details: Homo sapiens, Becker;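 also: growth inhibition of Becker cells, read out with a cell viability assay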
Description: SANGER: Inhibition of human Becker cell growth in a cell viability assay.

MPP-89 = type: functional, cell-based, Homo sapiens; details: Homo sapiens, MPP-89;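 also: growth inhibition of human MPP-89 cells, read out with a cell viability assay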
Description: SANGER: Inhibition of human MPP-89 cell growth in a cell viability assay.

MSTO-211H = type: functional, cell-based, Homo sapiens; details: Homo sapiens, MSTO-211H
Description: SANGER: Inhibition of human MSTO-211H cell growth in a cell viability assay.

NB5 = type: functional, cell-based, Homo sapiens; details: Homo sapiens, NB5;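 also: growth inhibition of NB5 cells, read out as cell viability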
Description: SANGER: Inhibition of human NB5 cell growth in a cell viability assay.

COLO-668 = type: functional, cell-based, Homo sapiens; details: Homo sapiens, COLO-668
Description: SANGER: Inhibition of human COLO-668 cell growth in a cell viability assay.

NCI-H1355 = type: functional, cell-based, Homo sapiens; details: Homo sapiens, NCI-H1355;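 also: growth inhibition of human NCI-H1355 cells, read out by a cell viability assay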
Description: SANGER: Inhibition of human NCI-H1355 cell growth in a cell viability assay.

NH-12 = type: functional, cell-based, Homo sapiens; details: Homo sapiens, NH-12;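 also: growth inhibition of NH-12 cells, read out with a cell viability assay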
Description: SANGER: Inhibition of human NH-12 cell growth in a cell viability assay.

SK-MEL-1 = type: functional, cell-based, Homo sapiens; details: Homo sapiens, SK-MEL-1;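 also: growth inhibition of human SK-MEL-1 cells, read out by a cell viability assay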
Description: SANGER: Inhibition of human SK-MEL-1 cell growth in a cell viability assay.

RS4-11 = type: functional, cell-based, Homo sapiens; details: Homo sapiens, RS4-11;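 also: growth inhibition of RS4-11 cells, read out by a cell viability assay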
Description: SANGER: Inhibition of human RS4-11 cell growth in a cell viability assay.

C8166 = type: functional, cell-based, Homo sapiens; details: Homo sapiens, C8166;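 also: growth inhibition of human C8166 cells measured by a cell viability assay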
Description: SANGER: Inhibition of human C8166 cell growth in a cell viability assay.

UACC-257 = type: functional, cell-based, Homo sapiens; details: Homo sapiens, UACC-257
Description: SANGER: Inhibition of human UACC-257 cell growth in a cell viability assay.

RKO = type: functional, cell-based, Homo sapiens; details: Homo sapiens, RKO;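 also: growth inhibition of human RKO cells, read out with a cell viability assay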
Description: SANGER: Inhibition of human RKO cell growth in a cell viability assay.

NCI-N87 = type: functional, cell-based; details: Homo sapiens;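 also: growth inhibition of human NCI-N87 cells, read out with a cell viability assay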
Description: SANGER: Inhibition of human NCI-N87 cell growth in a cell viability assay.

BPH-1 = type: functional, cell-based; details: Homo sapiens;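 also: cell viability assay measuring growth inhibition of human BPH-1 cells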
Description: SANGER: Inhibition of human BPH-1 cell growth in a cell viability assay.

EW-1 = type: functional, cell-based, Homo sapiens; details: Homo sapiens, EW-1
Description: SANGER: Inhibition of human EW-1 cell growth in a cell viability assay.

NCI-H1299 = type: functional, cell-based; details: Homo sapiens;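 also: growth inhibition of human NCI-H1299 cells, read out by a cell viability assay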
Description: SANGER: Inhibition of human NCI-H1299 cell growth in a cell viability assay.

MHH-NB-11 = type: functional, cell-based, Homo sapiens; details: Homo sapiens, MHH-NB-11;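 also: growth inhibition of human MHH-NB-11 cells, read out by a cell viability assay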
Description: SANGER: Inhibition of human MHH-NB-11 cell growth in a cell viability assay.

K562 = type: functional, cell-based, Homo sapiens; details: Homo sapiens, K562
Description: SANGER: Inhibition of human K-562 cell growth in a cell viability assay.

TGBC24TKB = type: functional, cell-based; details: Homo sapiens;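 also: growth inhibition of human TGBC24TKB cells, read out with a cell viability assay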
Description: SANGER: Inhibition of human TGBC24TKB cell growth in a cell viability assay.

Ramos-2G6-4C10 = type: functional, cell-based, Homo sapiens; details: Homo sapiens, Ramos-2G6-4C10;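 also: growth inhibition of the cell line, measured by a cell viability read-out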
Description: SANGER: Inhibition of human Ramos-2G6-4C10 cell growth in a cell viability assay.

SW 962 = type: functional, cell-based, Homo sapiens; details: Homo sapiens, SW 962;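 also: growth inhibition of human SW962 cells, read out by a cell viability assay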
Description: SANGER: Inhibition of human SW962 cell growth in a cell viability assay.

ALL-PO = type: functional, cell-based, Homo sapiens; details: Homo sapiens, ALL-PO;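 also: growth inhibition of ALL-PO cells, read out by a cell viability assay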
Description: SANGER: Inhibition of human ALL-PO cell growth in a cell viability assay.

A388 = type: functional, cell-based; details: Homo sapiens;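 also: growth inhibition of human A388 cells, read out with a cell viability assay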
Description: SANGER: Inhibition of human A388 cell growth in a cell viability assay.

EFO-27 = type: functional, cell-based; details: Homo sapiens;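 also: growth inhibition of EFO-27 cells, read out with a cell viability assay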
Description: SANGER: Inhibition of human EFO-27 cell growth in a cell viability assay.

NEC8 = type: functional, cell-based, Homo sapiens; details: Homo sapiens, NEC8;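 also: growth inhibition of human NEC8 cells, read out by a cell viability assay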
Description: SANGER: Inhibition of human NEC8 cell growth in a cell viability assay.

L-428 = type: functional, cell-based, Homo sapiens; details: Homo sapiens, L-428
Description: SANGER: Inhibition of human L-428 cell growth in a cell viability assay.

DEL = type: functional, cell-based, Homo sapiens; details: Homo sapiens, DEL;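 also: growth inhibition of the human DEL cell line, read out with a cell viability assay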
Description: SANGER: Inhibition of human DEL cell growth in a cell viability assay.

BB49-HNC = type: functional, cell-based, Homo sapiens; details: Homo sapiens, BB49-HNC;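 also: cell viability assay read-out, reported as inhibition of BB49-HNC cell growth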
Description: SANGER: Inhibition of human BB49-HNC cell growth in a cell viability assay.

EW-11 = type: functional, cell-based, Homo sapiens; details: Homo sapiens, EW-11;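 also: growth inhibition of human EW-11 cells, measured with a cell viability assay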
Description: SANGER: Inhibition of human EW-11 cell growth in a cell viability assay.

HEL = type: functional, cell-based, Homo sapiens; details: Homo sapiens, HEL;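 also: growth inhibition of HEL cells, read out with a cell viability assay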
Description: SANGER: Inhibition of human HEL cell growth in a cell viability assay.

GAK = type: functional, cell-based, Homo sapiens; details: Homo sapiens, GAK;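 also: cell growth inhibition read out by a cell viability assay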
Description: SANGER: Inhibition of human GAK cell growth in a cell viability assay.

IST-MES1 = type: functional, cell-based, Homo sapiens; details: Homo sapiens, IST-MES1;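 also: growth inhibition of IST-MES1 cells, measured with a cell viability assay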
Description: SANGER: Inhibition of human IST-MES1 cell growth in a cell viability assay.

A498 = type: functional, cell-based, Homo sapiens; details: Homo sapiens, A498;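 also: growth inhibition of human A498 cells, read out with a cell viability assay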
Description: SANGER: Inhibition of human A498 cell growth in a cell viability assay.

ATN-1 = type: functional, cell-based, Homo sapiens; details: Homo sapiens, ATN-1;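 also: growth inhibition of human ATN-1 cells, read out with a cell viability assay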
Description: SANGER: Inhibition of human ATN-1 cell growth in a cell viability assay.

RPMI-8866 = type: functional, cell-based, Homo sapiens; details: Homo sapiens, RPMI-8866
Description: SANGER: Inhibition of human RPMI-8866 cell growth in a cell viability assay.

OCUB-M = type: functional, cell-based; details: Homo sapiens;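 also: growth inhibition of the cancer cell line, read out through a cell viability assay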
Description: SANGER: Inhibition of human OCUB-M cell growth in a cell viability assay.

NCI-H1304 = type: functional, cell-based, Homo sapiens; details: Homo sapiens, NCI-H1304;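 also: growth inhibition of the cancer cell line, measured in a cell viability assay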
Description: SANGER: Inhibition of human NCI-H1304 cell growth in a cell viability assay.

CN(NC(=O)CC(=O)NN(C)C(=S)c1ccccc1)C(=S)c1ccccc1 [ELESCLOMOL]
IC50 (LS-411N): 0.102 µM | IC50 (SHP77): > 0.2 µM | IC50 (COLO-320-HSR): > 0.2 µM | IC50 (NCI-H1581): 0.0246 µM | IC50 (KLE): > 0.2 µM | IC50 (OAW-42): 0.0816 µM | IC50 (NCI-H209): > 0.2 µM | IC50 (LB1047-RCC): 0.0107 µM | IC50 (CTB-1): 0.00864 µM | IC50 (HH): > 0.2 µM | IC50 (no-10): > 0.2 µM | IC50 (Becker): 0.0223 µM | IC50 (MPP-89): 0.00913 µM | IC50 (MSTO-211H): > 0.2 µM | IC50 (NB5): 0.0307 µM | IC50 (COLO-668): > 0.2 µM | IC50 (NCI-H1355): 0.00889 µM | IC50 (NH-12): 0.134 µM | IC50 (SK-MEL-1): > 0.2 µM | IC50 (RS4-11): > 0.2 µM | IC50 (C8166): > 0.2 µM | IC50 (UACC-257): 0.022 µM | IC50 (RKO): 0.021 µM | IC50 (NCI-N87): > 0.2 µM | IC50 (BPH-1): 0.0831 µM | IC50 (EW-1): 0.00524 µM | IC50 (NCI-H1299): 0.0185 µM | IC50 (MHH-NB-11): 0.0691 µM | IC50 (K562): > 0.2 µM | IC50 (TGBC24TKB): 0.0129 µM | IC50 (Ramos-2G6-4C10): 0.012 µM | IC50 (SW 962): 0.111 µM | IC50 (ALL-PO): > 0.2 µM | IC50 (A388): > 0.2 µM | IC50 (EFO-27): 0.00772 µM | IC50 (NEC8): 0.0115 µM | IC50 (L-428): > 0.2 µM | IC50 (DEL): 0.0192 µM | IC50 (BB49-HNC): 0.126 µM | IC50 (EW-11): 0.0049 µM | IC50 (HEL): 0.00708 µM | IC50 (GAK): > 0.2 µM | IC50 (IST-MES1): 0.0541 µM | IC50 (A498): 0.0465 µM | IC50 (ATN-1): > 0.2 µM | IC50 (RPMI-8866): 0.03 µM | IC50 (OCUB-M): 0.195 µM | IC50 (NCI-H1304): > 0.2 µM

CC1=C(/C=C/C(C)=C/C=C/C(C)=C/C(=O)O)C(C)(C)CCC1 [TRETINOIN]
IC50 (LS-411N): > 10 µM | IC50 (SHP77): > 10 µM | IC50 (COLO-320-HSR): > 10 µM | IC50 (NCI-H1581): > 10 µM | IC50 (KLE): > 10 µM | IC50 (OAW-42): > 10 µM | IC50 (NCI-H209): 2.52 µM | IC50 (LB1047-RCC): > 10 µM | IC50 (CTB-1): 1.6 µM | IC50 (HH): 0.196 µM | IC50 (no-10): > 10 µM | IC50 (Becker): > 10 µM | IC50 (MPP-89): > 10 µM | IC50 (MSTO-211H): > 10 µM | IC50 (NB5): > 10 µM | IC50 (COLO-668): > 10 µM | IC50 (NCI-H1355): > 10 µM | IC50 (NH-12): > 10 µM | IC50 (SK-MEL-1): > 10 µM | IC50 (RS4-11): 4.45 µM | IC50 (C8166): > 10 µM | IC50 (UACC-257): > 10 µM | IC50 (RKO): > 10 µM | IC50 (NCI-N87): > 10 µM | IC50 (BPH-1): 7.44 µM | IC50 (EW-1): > 10 µM | IC50 (NCI-H1299): > 10 µM | IC50 (MHH-NB-11): > 10 µM | IC50 (K562): > 10 µM | IC50 (TGBC24TKB): > 10 µM | IC50 (Ramos-2G6-4C10): > 10 µM | IC50 (SW 962): > 10 µM | IC50 (ALL-PO): 6.87 µM | IC50 (A388): > 10 µM | IC50 (EFO-27): > 10 µM | IC50 (NEC8): > 10 µM | IC50 (L-428): > 10 µM | IC50 (DEL): > 10 µM | IC50 (BB49-HNC): > 10 µM | IC50 (EW-11): > 10 µM | IC50 (HEL): > 10 µM | IC50 (GAK): > 10 µM | IC50 (IST-MES1): > 10 µM | IC50 (A498): > 10 µM | IC50 (ATN-1): 0.0303 µM | IC50 (RPMI-8866): > 10 µM | IC50 (OCUB-M): > 10 µM | IC50 (NCI-H1304): > 10 µM

NC(=O)c1ccc(N(C(N)=O)c2c(F)cccc2F)nc1-c1ccc(F)cc1F [VX-702]
IC50 (LS-411N): > 2 µM | IC50 (SHP77): > 2 µM | IC50 (COLO-320-HSR): > 2 µM | IC50 (NCI-H1581): > 2 µM | IC50 (KLE): > 2 µM | IC50 (OAW-42): > 2 µM | IC50 (NCI-H209): 0.176 µM | IC50 (LB1047-RCC): > 2 µM | IC50 (CTB-1): > 2 µM | IC50 (HH): > 2 µM | IC50 (no-10): > 2 µM | IC50 (Becker): > 2 µM | IC50 (MPP-89): > 2 µM | IC50 (MSTO-211H): > 2 µM | IC50 (NB5): > 2 µM | IC50 (COLO-668): > 2 µM | IC50 (NCI-H1355): > 2 µM | IC50 (NH-12): > 2 µM | IC50 (SK-MEL-1): > 2 µM | IC50 (RS4-11): > 2 µM | IC50 (C8166): > 2 µM | IC50 (UACC-257): 1.2 µM | IC50 (RKO): > 2 µM | IC50 (NCI-N87): > 2 µM | IC50 (BPH-1): > 2 µM | IC50 (EW-1): > 2 µM | IC50 (NCI-H1299): > 2 µM | IC50 (MHH-NB-11): > 2 µM | IC50 (K562): > 2 µM | IC50 (TGBC24TKB): > 2 µM | IC50 (Ramos-2G6-4C10): > 2 µM | IC50 (SW 962): > 2 µM | IC50 (ALL-PO): > 2 µM | IC50 (A388): > 2 µM | IC50 (EFO-27): > 2 µM | IC50 (NEC8): > 2 µM | IC50 (L-428): > 2 µM | IC50 (DEL): > 2 µM | IC50 (BB49-HNC): > 2 µM | IC50 (EW-11): > 2 µM | IC50 (HEL): > 2 µM | IC50 (GAK): > 2 µM | IC50 (IST-MES1): > 2 µM | IC50 (A498): > 2 µM | IC50 (ATN-1): > 2 µM | IC50 (RPMI-8866): > 2 µM | IC50 (OCUB-M): > 2 µM | IC50 (NCI-H1304): > 2 µM
